Usually AUC(0-t) stands for the area under the concentration-time curve up to a stated or last time point. The low end stands for less exposure, the high end for more exposure.

In one series the test system is germ cell tumors. The note with it: patients with germ cell tumors; cited from earlier work.
The next series has as its system gastric cancer. The note with it: patients with gastric cancer; cited from earlier work.
Series [1] has as its system substrates of CYP1A, CYP2C9, CYP2C19, CYP3A4 or P-glycoprotein. The note with it: cited from earlier work.
For series [2] the following is noted: phase I dose escalation study; cited from earlier work.
The test system of a further series is hepatocellular carcinoma. The note with it: patients with hepatocellular carcinoma; cited from earlier work.
Series [3] can be described thus: Tivantinib steady-state plasma pharmacokinetics. The series is classed as in vivo, human.
The test system of series [4] is triple-negative breast cancer. The note with it: patients with triple-negative breast cancer; cited from earlier work.
In a further series the test system is cytochrome P450 enzymes. The note with it: ref Hycamtin® prescribing information; cited from earlier work.

Molecules are shown by their SMILES.

For the compound `O=C1NC(=O)[C@@H](c2cn3c4c(cccc24)CCC3)[C@@H]1c1c[nH]c2ccccc12` [tivantinib], the “Responses, monotherapy” value in the series with germ cell tumors, in the series on gastric cancer and in the series with hepatocellular carcinoma was “No responses were seen” in each case. Besides, the “Interaction with substrates of CYP1A, CYP2C9, CYP2C19, CYP3A4 or P-glycoprotein” value in series [1] is “has not been shown to have a significant interaction”. In series [2], the “Maximum tolerated dose, single agent” value is recorded as “no maximum tolerated dose was identified”. For the same compound, the “AUC0–8 hr” value in series [3] (Dose Level 1 (tivantinib 240 mg), n=1) is on record as 7,243 ng × hr/ml. In addition, the “Clsys (oral clearance), range of observed values” in series [3] (Dose Levels −1 and A1 (tivantinib 120 mg), n=11) is 2.4 to 44.5 L/h. This compound also yielded an area under the curve AUC(0-t) in series [3] (human, plasma, oral, AUC0–12 hr, median, All Dose Levels, n=12) of 10500 ng·h/mL. The “Response rate, monotherapy” value in series [4] is recorded as 5%.

Consider `CC[C@@]1(O)C(=O)OCc2c1cc1n(c2=O)Cc2cc3c(CN(C)C)c(O)ccc3nc2-1` [topotecan], for which, in the series on cytochrome P450 enzymes, the “Induction or inhibition of cytochrome P450 enzymes” value is listed as “has not been shown to induce or inhibit cytochrome P450 enzymes”.

The values above are taken from PMC6342617 (Cancer chemotherapy and pharmacology, 2018).
